From ChEMBL document CHEMBL1133163, “AMP deaminase inhibitors. 4. Further N3-substituted coformycin aglycon analogues: N3-alkylmalonates as ribose 5'-monophosphate mimetics” (J Med Chem, 2000)

Legend:
AMP deaminase 3 = molecular target: T1, AMP deaminase 3 (Homo sapiens, UniProt Q01432); assay: Inhibitory activity against porcine heart or recombinant human E-type AMPDA
T1 sequence (Q01432 whole entry): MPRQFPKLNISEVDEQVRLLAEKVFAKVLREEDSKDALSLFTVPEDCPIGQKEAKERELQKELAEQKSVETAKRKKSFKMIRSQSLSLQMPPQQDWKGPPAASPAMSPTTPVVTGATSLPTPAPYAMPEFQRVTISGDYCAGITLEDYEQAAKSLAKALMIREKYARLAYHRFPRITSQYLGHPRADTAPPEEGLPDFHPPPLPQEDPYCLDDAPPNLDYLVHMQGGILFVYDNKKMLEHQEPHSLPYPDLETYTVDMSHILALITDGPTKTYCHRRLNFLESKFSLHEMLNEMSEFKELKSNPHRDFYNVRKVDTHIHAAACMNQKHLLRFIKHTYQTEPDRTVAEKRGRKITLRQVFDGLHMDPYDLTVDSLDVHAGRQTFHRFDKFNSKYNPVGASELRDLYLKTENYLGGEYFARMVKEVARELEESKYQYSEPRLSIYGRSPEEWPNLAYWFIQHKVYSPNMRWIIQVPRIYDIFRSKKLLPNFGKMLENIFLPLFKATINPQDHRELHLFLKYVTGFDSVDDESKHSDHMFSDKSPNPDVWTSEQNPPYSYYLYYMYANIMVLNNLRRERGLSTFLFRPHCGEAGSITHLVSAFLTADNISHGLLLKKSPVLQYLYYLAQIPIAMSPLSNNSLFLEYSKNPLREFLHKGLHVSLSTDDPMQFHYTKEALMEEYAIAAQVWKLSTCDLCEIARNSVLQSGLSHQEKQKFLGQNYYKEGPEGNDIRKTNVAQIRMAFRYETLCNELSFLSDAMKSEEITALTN

Adenosine deaminase = molecular target: T2, Adenosine deaminase (Bos taurus, UniProt P56658); assay: Inhibitory activity against calf intestinal Adenosine deaminase (ADA)
T2 sequence (P56658 whole entry): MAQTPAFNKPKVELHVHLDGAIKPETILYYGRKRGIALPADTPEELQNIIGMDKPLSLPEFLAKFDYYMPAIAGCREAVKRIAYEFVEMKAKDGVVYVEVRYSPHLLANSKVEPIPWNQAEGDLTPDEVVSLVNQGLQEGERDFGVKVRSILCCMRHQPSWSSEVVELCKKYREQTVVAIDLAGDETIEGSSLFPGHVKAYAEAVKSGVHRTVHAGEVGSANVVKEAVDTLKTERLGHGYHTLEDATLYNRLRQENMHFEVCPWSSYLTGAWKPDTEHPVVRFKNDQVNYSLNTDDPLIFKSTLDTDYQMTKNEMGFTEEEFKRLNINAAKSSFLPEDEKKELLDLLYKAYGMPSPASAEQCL

Compound	Ki (AMP deaminase 3)	Ki (Adenosine deaminase)
CCOC(=O)C(CCCCn1cnc2c1N=CNCC2O)(Cc1ccccc1)C(=O)OCC (centres undefined)	2.6 µM	> 7.5 µM
CC(CCCCn1cnc2c1N=CNCC2O)(C(=O)O)C(=O)NCCc1ccccc1 (centres undefined)	2.1 µM	> 7.5 µM
O=C(O)C(CCCCn1cnc2c1NC=NCC2O)(Cc1ccccc1C(F)(F)F)C(=O)O (centres undefined)	0.041 µM	> 7.5 µM
CC(CCCCn1cnc2c1NC=NCC2O)(C(=O)O)C(=O)NC1CCCCC1 (centres undefined)	5.2 µM	> 7.5 µM
O=C(O)C(CCCCn1cnc2c1NC=NCC2O)C(=O)O (centres undefined)	5.1 µM	> 7.5 µM
O=C(O)CCCCCn1cnc2c1N=CNCC2O (centres undefined)	4.2 µM	
CC(CCCCn1cnc2c1NC=NCC2O)(C(=O)O)C(=O)OCc1ccccc1 (centres undefined)	0.9 µM	> 7.5 µM
CCOC(=O)C(C)(CCCCn1cnc2c1NC=NCC2O)C(=O)OCC (centres undefined)	44.8 µM	> 500 µM
O=C(O)C(CCCCn1cnc2c1N=CNCC2O)C(=O)NCc1ccc(Cl)cc1 (centres undefined)	1.3 µM	> 7.5 µM
O=C(O)C(CCCCn1cnc2c1N=CNCC2O)C(=O)NCc1ccccc1 (centres undefined)	2.4 µM	> 7.5 µM

More lines, in order of falling Ki (AMP deaminase 3), values ahead:

Ki (AMP deaminase 3)	Ki (Adenosine deaminase)	Compound
7.8 µM	> 7.5 µM	CC(CCCCn1cnc2c1NC=NCC2O)(C(N)=O)C(=O)O (centres undefined)
6 µM	> 7.5 µM	CC(CCCCn1cnc2c1NC=NCC2O)(C(=O)O)C(=O)O (centres undefined)
5.2 µM	> 7.5 µM	CC(CCCCn1cnc2c1NC=NCC2O)(C(=O)OCc1ccccc1)C(=O)OCc1ccccc1 (centres undefined)
1.2 µM	> 7.5 µM	CC(CCCCn1cnc2c1NC=NCC2O)(Cc1cccc(C(F)(F)F)c1)C(=O)O (centres undefined)
0.36 µM	> 7.5 µM	CCOC(=O)C(CCCCn1cnc2c1N=CNCC2O)(Cc1ccccc1C(F)(F)F)C(=O)OCC (centres undefined)
0.36 µM	> 7.5 µM	O=C(O)C(CCCCn1cnc2c1N=CNCC2O)C(=O)OCc1ccccc1 (centres undefined)
0.25 µM	> 7.5 µM	O=C(OCc1ccccc1)C(CCCCn1cnc2c1N=CNCC2O)(Cc1ccccc1C(F)(F)F)C(=O)OCc1ccccc1 (centres undefined)
0.17 µM	> 7.5 µM	O=C(O)C(CCCCn1cnc2c1N=CNCC2O)(Cc1ccccc1)C(=O)O (centres undefined)
0.04 µM	> 7.5 µM	O=C(O)C(CCCCn1cnc2c1NC=NCC2O)(Cc1ccc(C(F)(F)F)cc1)C(=O)O (centres undefined)
0.029 µM	> 7.5 µM	O=C(O)C(CCCCn1cnc2c1NC=NCC2O)(Cc1cccc(C(F)(F)F)c1)C(=O)O (centres undefined)
